Patent US4697012A, “Morpholino pyridyl thiazole compound” (Merck & Co., Inc., priority 1984, dated 1987)
Where a name gives a salt, the structure may show the parent alone.

Tested on: footpad swelling (SRBC challenge)
Test: Delayed Hypersensitivity Assay (SRBC-sensitized mice, footpad swelling)
Type: in vivo, female BALB/C mice
Conditions: Mus musculus, one hour prior to challenge, 24 hrs post challenge, read-out: Inhibition % (percent inhibition of footpad swelling); for inhibition in vivo at 0.1 mg/kg: dosage 0.1 mg/kg p.o.; for inhibition in vivo at 1 mg/kg: dosage 1.0 mg/kg p.o.; for inhibition in vivo at 10 mg/kg: dosage 10.0 mg/kg p.o.; for inhibition in vivo at 10000 µg/mL / inhibition in vivo at 10 µg/mL / inhibition in vivo at 100 µg/mL / inhibition in vivo at 100000 µg/mL: Table II; for inhibition in vivo at 10000 µg/mL: dosage 10.0 (mg/ml as printed) p.o.; for inhibition in vivo at 10 µg/mL: dosage 0.01 (mg/ml as printed) p.o.; for inhibition in vivo at 100 µg/mL: dosage 0.1 (mg/ml as printed) p.o.; for inhibition in vivo at 100000 µg/mL: dosage 100.0 (mg/ml as printed) p.o.; for inhibition in vivo at 0.01 mg/kg: dosage 0.01 mg/kg p.o.; for inhibition in vivo at 100 mg/kg: dosage 100.0 mg/kg p.o.
Description: Animals (female BALB/C mice) are sensitized with 5×10^5 SRBC(sheep red blood cells)/0.5 ml by intravenous (tail vein) injection. One hour prior to challenge, animals are dosed with the drugs in question, p.o. On day four the animals are challenged with 5×10^8 SRBC/0.05 ml in the hind foot pad. Footpad volume is measured by a mercury displacement apparatus before challenge and 24 hrs post challenge. Percent inhibition of footpad swelling is calculated by comparing the increase in footpad volume of test group to the control group.

## OCC(c1ccccc1)c1nc(-c2ccncc2)cs1 (stereo not drawn) [CH2 OH, 2-Phenyl-2-[4-(4-pyridyl)-2-thiazolyl] ethanol]
po, Table I
  inhibition in vivo at 0.1 mg/kg: 51%
  inhibition in vivo at 1 mg/kg: 65%
  inhibition in vivo at 10 mg/kg: 27%

## O=CC(c1ccccc1)c1nc(-c2ccncc2)cs1 (stereo not drawn) [CHO]
po, Table I
  inhibition in vivo at 10 mg/kg: 63%

## N#CC(c1ccccc1)c1nc(-c2ccncc2)cs1 (stereo not drawn) [CN, 2-Phenyl-2-[4-(4-pyridyl)-2-thiazolyl]acetonitrile]
po, Table I
  inhibition in vivo at 0.1 mg/kg: 58%
  inhibition in vivo at 1 mg/kg: 46%

## N#Cc1cc(-c2csc(Cc3ccccc3)n2)ccn1 [Example 2-CN]
  inhibition in vivo at 10000 µg/mL: 36.6%

## Clc1cc(-c2csc(Cc3ccccc3)n2)ccn1 [Example 2-Cl, 2-Benzyl-4-(2-chloro-4-pyridyl)thiazole]
  inhibition in vivo at 10 µg/mL: 52.6%
  inhibition in vivo at 100 µg/mL: 64.7%
  inhibition in vivo at 10000 µg/mL: 77.6%
  inhibition in vivo at 100000 µg/mL: 80.1%

## c1ccc(Cc2nc(-c3ccnc(N4CCOCC4)c3)cs2)cc1 [Example 2-morpholino]
  inhibition in vivo at 10 µg/mL: 26.1%
  inhibition in vivo at 100 µg/mL: 33.8%
  inhibition in vivo at 10000 µg/mL: 44.3%
  inhibition in vivo at 100000 µg/mL: 45.1%

## FC(F)(c1ccccc1)c1nc(-c2ccncc2)cs1 [F,F, 1,1-Difluoro-1-phenyl-1-[4-(4-pyridyl)-2-thiazolyl]-methane]
po, Table I
  inhibition in vivo at 1 mg/kg: 49%
  inhibition in vivo at 10 mg/kg: 63%

## c1ccc(Cc2nc(-c3ccncc3)cs2)cc1 [H, 2-Benzyl-4-(4-pyridyl)thiazole]
po, Table I
  inhibition in vivo at 0.01 mg/kg: 21.8%
  inhibition in vivo at 0.1 mg/kg: 70.2%
po, Table I, dosage 30 mg/kg p.o.
  inhibition in vivo at 30 mg/kg: 75.2%

## [O-][n+]1ccc(-c2csc(Cc3ccccc3)n2)cc1 [Noxide, 4-[2-(Phenylmethyl)-4-thiazolyl]pyridine-1-oxide]
  inhibition in vivo at 10 µg/mL: 46%
  inhibition in vivo at 100 µg/mL: 55.6%
  inhibition in vivo at 10000 µg/mL: 71.8%
  inhibition in vivo at 100000 µg/mL: 93.4%

## OC(c1ccccc1)c1nc(-c2ccncc2)cs1 (stereo not drawn) [OH, 1-Phenyl-1-[4-(4-pyridyl)-2-thiazolyl]methanol]
po, Table I
  inhibition in vivo at 0.1 mg/kg: 32%
  inhibition in vivo at 1 mg/kg: 31%
  inhibition in vivo at 10 mg/kg: 55%

## Fc1ccc(Cc2nc(-c3ccncc3)cs2)cc1 [PF, 2-(p-fluoro-benzyl)-4-(4-pyridyl)thiazole]
po, Table I
  inhibition in vivo at 0.1 mg/kg: 11.7%
  inhibition in vivo at 1 mg/kg: 60.8%
  inhibition in vivo at 10 mg/kg: 40.9%

## Cc1cccc(Cc2nc(-c3ccncc3)cs2)c1 [m-CH3, 2-(m-methyl-benzyl)-4-(4-pyridyl)thiazole dihydrochloride]
po, Table I
  inhibition in vivo at 0.1 mg/kg: 49.1%
  inhibition in vivo at 10 mg/kg: 64.8%
  inhibition in vivo at 100 mg/kg: 71.2%

## Nc1ccccc1Cc1nc(-c2ccncc2)cs1 [o-NH2, 2-(o-Aminobenzyl)-4-(4-pyridyl)thiazole]
po, Table I
  inhibition in vivo at 0.01 mg/kg: 82.2%
  inhibition in vivo at 0.1 mg/kg: 93.6%
  inhibition in vivo at 10 mg/kg: 52.8%

## CC(=O)Nc1ccccc1Cc1nc(-c2ccncc2)cs1 [o-NHCOCH3, 2-(o-acetamidobenzyl)-4-(4-pyridyl)thiazole]
po, Table I
  inhibition in vivo at 0.1 mg/kg: 32.6%
  inhibition in vivo at 10 mg/kg: 52.8%
  inhibition in vivo at 100 mg/kg: 75.5%

## NC(=O)Nc1ccccc1Cc1nc(-c2ccncc2)cs1 [o-NHCONH2]
po, Table I
  inhibition in vivo at 0.01 mg/kg: 40.4%
  inhibition in vivo at 10 mg/kg: 31.4%

## Oc1ccccc1Cc1nc(-c2ccncc2)cs1 [o-OH]
po, Table I
  inhibition in vivo at 0.01 mg/kg: 15.1%
  inhibition in vivo at 0.1 mg/kg: 16.4%

## c1ccc(-c2ccc(Cc3nc(-c4ccncc4)cs3)cc2)cc1 [p-C6 H5]
po, Table I
  inhibition in vivo at 10 mg/kg: 36.4%

## O=[N+]([O-])c1ccc(Cc2nc(-c3ccncc3)cs2)cc1 [p-NO2, 2-(p-Nitrobenzyl)-4-(4-pyridyl)thiazole]
po, Table I
  inhibition in vivo at 0.01 mg/kg: 32.4%
  inhibition in vivo at 0.1 mg/kg: 40.6%
  inhibition in vivo at 10 mg/kg: 65.2%
  inhibition in vivo at 100 mg/kg: 82.2%
